Consider 4 compounds from PMC8550792, “Evolution of kinase polypharmacology across HSP90 drug discovery” (Cell Chemical Biology, 2021).

Assay in all cases: biochemical
What all share (type): biochemical

Assay [1] concerns the target T1, 382 unique human kinases (Homo sapiens, UniProt P07949).
T1 construct: purchased Reaction Biology (HotSpot contract assay)
The settings on record: kinase RET, compound 10 uM; for remaining activity at 10 µM: read-out: % Enzyme Activity (relative to DMSO controls).

Assay [2] addresses T2, 382 unique human kinases (Homo sapiens, UniProt P15056, V600A).
T2 construct: purchased Reaction Biology (HotSpot contract assay)
The settings on record: BRAF (V600A), compound at 10 uM, duplicate values; for remaining activity at 10 µM: read-out: % Enzyme Activity (relative to DMSO controls).

Assay [3] deals with T3, 382 unique human kinases (Homo sapiens, UniProt P35968).
T3 construct: purchased Reaction Biology (HotSpot contract assay)
The settings on record: kinase KDR/VEGFR2, compound 10 uM; for remaining activity at 10 µM: read-out: % Enzyme Activity (relative to DMSO controls).

In assay [4] the target is T4, 382 unique human kinases (Homo sapiens, UniProt Q15569).
T4 construct: purchased Reaction Biology (HotSpot contract assay)
The settings on record: TESK1, compound at 10 uM, duplicate values; for remaining activity at 10 µM: read-out: % Enzyme Activity (relative to DMSO controls).

Assay [5] deals with T5, 382 unique human kinases (Homo sapiens, UniProt Q86UX6).
T5 construct: purchased Reaction Biology (HotSpot contract assay)
The settings on record: STK32C/YANK3, 10 uM; for remaining activity at 10 µM: read-out: % Enzyme Activity (relative to DMSO controls).

Assay [6] addresses T6, 382 unique human kinases (Homo sapiens, UniProt Q9BXA7).
T6 construct: purchased Reaction Biology (HotSpot contract assay)
T6 sequence (Q9BXA7 1-367): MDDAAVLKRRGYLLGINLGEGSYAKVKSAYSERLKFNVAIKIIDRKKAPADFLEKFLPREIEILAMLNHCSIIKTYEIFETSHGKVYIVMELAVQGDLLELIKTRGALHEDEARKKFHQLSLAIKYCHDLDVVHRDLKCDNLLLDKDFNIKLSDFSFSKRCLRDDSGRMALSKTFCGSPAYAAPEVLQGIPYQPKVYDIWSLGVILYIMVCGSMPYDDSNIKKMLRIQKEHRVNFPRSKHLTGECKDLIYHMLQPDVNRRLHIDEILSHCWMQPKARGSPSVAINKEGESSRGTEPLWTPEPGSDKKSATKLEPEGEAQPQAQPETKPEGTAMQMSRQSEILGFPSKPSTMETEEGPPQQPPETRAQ
The settings on record: STK22D/TSSK1, 10 uM; for remaining activity at 10 µM: read-out: % Enzyme Activity (relative to DMSO controls).

In assay [7] the target is T7, 382 unique human kinases (Homo sapiens, UniProt Q9P286).
T7 construct: purchased Reaction Biology (HotSpot contract assay)
The settings on record: PAK5, compound at 10 uM, duplicate values; for remaining activity at 10 µM: read-out: % Enzyme Activity (relative to DMSO controls).

Assay [8] deals with T8, 382 unique human kinases (Homo sapiens, UniProt Q9Y2K2).
T8 construct: purchased Reaction Biology (HotSpot contract assay)
The settings on record: SIK3, 10 uM; for remaining activity at 10 µM: read-out: % Enzyme Activity (relative to DMSO controls).

In assay [9] the target is T9, 382 unique human kinases (Homo sapiens, UniProt O00141).
T9 construct: purchased Reaction Biology (HotSpot contract assay)
T9 sequence (O00141 1-431): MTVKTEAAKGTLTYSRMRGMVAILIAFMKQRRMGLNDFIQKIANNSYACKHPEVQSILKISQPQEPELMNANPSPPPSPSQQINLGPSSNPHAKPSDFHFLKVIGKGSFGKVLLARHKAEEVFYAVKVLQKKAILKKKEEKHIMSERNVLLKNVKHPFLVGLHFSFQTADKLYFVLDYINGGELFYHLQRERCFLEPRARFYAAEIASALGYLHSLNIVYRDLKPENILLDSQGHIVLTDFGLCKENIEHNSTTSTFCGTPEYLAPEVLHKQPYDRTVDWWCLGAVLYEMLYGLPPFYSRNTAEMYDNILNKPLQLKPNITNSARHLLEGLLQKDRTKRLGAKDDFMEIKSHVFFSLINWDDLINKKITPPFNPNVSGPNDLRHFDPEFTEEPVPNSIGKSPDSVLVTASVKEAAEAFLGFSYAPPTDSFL
The settings on record: SGK1, 10 uM; for remaining activity at 10 µM: read-out: % Enzyme Activity (relative to DMSO controls).

Assay [10] deals with T10, 382 unique human kinases (Homo sapiens, UniProt Q13976).
T10 construct: purchased Reaction Biology (HotSpot contract assay)
T10 sequence (Q13976 1-671): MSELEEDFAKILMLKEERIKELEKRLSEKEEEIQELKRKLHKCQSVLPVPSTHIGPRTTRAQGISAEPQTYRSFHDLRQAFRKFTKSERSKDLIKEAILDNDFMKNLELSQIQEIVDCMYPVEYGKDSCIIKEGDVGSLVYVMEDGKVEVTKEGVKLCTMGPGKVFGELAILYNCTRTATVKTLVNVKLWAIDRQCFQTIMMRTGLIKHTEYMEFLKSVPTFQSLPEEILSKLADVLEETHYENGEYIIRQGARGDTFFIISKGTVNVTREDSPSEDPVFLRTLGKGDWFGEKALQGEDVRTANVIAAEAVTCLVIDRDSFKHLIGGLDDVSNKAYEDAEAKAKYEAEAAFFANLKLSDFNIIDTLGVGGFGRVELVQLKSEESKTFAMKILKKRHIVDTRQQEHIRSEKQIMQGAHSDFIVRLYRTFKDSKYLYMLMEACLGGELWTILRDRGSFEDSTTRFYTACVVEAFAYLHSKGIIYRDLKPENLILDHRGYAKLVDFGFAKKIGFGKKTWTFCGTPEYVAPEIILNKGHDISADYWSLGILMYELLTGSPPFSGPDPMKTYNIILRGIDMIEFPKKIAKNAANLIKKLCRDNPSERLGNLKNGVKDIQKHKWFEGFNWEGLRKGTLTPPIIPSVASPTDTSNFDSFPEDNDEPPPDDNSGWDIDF
The settings on record: PKG1a, 10 uM; for remaining activity at 10 µM: read-out: % Enzyme Activity (relative to DMSO controls).

T2 sequence (P15056 whole entry V600A): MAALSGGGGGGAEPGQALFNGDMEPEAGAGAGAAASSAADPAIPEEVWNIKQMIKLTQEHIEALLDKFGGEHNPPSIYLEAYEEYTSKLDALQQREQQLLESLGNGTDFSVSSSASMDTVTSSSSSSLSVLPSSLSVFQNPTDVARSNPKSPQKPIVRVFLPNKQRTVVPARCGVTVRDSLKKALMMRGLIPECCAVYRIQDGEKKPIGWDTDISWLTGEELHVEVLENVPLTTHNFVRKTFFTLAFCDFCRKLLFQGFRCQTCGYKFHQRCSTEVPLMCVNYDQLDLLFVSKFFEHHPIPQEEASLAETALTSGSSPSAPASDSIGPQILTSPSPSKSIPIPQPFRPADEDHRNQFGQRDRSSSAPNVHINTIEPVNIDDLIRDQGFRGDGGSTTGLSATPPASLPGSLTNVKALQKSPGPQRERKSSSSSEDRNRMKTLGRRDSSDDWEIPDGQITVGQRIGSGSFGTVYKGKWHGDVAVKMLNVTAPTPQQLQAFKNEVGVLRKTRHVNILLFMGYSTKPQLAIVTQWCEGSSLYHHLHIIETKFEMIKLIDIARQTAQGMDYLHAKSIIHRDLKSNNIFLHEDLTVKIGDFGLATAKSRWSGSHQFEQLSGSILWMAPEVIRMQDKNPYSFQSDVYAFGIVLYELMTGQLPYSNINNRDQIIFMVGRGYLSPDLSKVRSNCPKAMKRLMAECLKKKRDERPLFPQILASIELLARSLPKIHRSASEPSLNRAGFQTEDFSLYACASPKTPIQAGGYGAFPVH
T5 sequence (Q86UX6 whole entry): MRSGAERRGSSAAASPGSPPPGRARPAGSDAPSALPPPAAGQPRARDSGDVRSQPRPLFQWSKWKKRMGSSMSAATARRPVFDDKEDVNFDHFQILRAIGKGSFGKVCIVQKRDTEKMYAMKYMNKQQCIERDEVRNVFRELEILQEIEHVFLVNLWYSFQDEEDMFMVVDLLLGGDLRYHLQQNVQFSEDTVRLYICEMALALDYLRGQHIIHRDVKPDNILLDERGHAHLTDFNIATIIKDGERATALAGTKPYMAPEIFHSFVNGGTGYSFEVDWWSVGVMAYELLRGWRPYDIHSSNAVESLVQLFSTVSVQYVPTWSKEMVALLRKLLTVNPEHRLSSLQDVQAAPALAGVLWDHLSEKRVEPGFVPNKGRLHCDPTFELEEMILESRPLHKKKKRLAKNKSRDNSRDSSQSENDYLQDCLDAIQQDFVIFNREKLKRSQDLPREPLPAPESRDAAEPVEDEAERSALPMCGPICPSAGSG
T4 sequence (Q15569 whole entry): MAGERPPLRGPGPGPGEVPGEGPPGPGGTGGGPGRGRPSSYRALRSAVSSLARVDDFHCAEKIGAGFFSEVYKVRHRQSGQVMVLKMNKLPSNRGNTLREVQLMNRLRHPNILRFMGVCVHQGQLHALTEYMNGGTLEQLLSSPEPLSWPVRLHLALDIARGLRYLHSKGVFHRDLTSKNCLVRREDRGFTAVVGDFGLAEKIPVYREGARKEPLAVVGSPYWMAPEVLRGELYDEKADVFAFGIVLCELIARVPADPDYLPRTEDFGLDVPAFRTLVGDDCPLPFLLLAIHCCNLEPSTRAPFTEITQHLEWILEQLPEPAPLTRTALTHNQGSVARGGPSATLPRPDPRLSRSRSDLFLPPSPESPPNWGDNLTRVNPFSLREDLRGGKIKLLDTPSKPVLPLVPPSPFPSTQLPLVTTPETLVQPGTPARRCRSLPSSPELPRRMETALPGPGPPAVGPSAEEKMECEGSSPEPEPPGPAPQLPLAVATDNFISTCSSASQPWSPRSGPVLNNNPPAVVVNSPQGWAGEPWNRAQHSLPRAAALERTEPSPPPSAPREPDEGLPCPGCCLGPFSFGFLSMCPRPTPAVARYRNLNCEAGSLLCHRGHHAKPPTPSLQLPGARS
T1 sequence (P07949 29-1114): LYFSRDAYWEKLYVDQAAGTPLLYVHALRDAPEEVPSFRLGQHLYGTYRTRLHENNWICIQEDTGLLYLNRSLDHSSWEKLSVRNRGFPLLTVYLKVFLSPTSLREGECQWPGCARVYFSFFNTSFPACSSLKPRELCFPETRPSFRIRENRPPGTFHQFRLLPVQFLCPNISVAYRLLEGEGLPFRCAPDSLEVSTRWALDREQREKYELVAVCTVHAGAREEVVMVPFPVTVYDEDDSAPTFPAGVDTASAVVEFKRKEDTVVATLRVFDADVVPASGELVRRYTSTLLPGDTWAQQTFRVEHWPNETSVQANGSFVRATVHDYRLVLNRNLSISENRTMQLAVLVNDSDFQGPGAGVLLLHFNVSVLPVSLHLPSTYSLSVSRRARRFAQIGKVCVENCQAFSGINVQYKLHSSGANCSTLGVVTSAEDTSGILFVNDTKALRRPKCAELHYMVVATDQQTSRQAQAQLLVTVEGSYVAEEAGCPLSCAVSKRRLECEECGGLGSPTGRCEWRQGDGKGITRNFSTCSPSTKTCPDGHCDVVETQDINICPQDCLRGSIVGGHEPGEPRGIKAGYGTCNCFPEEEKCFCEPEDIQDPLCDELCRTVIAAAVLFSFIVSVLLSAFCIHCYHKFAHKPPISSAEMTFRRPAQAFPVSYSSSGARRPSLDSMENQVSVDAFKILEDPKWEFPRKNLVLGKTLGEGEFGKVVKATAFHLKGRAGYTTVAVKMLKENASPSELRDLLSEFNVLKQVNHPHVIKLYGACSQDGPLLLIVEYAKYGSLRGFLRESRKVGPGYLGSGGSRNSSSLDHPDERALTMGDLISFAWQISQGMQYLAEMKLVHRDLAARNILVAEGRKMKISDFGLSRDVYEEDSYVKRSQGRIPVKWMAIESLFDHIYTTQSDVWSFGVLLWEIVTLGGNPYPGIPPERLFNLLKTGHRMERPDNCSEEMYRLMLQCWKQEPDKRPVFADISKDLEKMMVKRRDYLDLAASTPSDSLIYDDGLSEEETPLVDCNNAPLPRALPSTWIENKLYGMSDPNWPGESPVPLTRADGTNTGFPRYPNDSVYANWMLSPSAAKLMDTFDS
T7 sequence (Q9P286 whole entry): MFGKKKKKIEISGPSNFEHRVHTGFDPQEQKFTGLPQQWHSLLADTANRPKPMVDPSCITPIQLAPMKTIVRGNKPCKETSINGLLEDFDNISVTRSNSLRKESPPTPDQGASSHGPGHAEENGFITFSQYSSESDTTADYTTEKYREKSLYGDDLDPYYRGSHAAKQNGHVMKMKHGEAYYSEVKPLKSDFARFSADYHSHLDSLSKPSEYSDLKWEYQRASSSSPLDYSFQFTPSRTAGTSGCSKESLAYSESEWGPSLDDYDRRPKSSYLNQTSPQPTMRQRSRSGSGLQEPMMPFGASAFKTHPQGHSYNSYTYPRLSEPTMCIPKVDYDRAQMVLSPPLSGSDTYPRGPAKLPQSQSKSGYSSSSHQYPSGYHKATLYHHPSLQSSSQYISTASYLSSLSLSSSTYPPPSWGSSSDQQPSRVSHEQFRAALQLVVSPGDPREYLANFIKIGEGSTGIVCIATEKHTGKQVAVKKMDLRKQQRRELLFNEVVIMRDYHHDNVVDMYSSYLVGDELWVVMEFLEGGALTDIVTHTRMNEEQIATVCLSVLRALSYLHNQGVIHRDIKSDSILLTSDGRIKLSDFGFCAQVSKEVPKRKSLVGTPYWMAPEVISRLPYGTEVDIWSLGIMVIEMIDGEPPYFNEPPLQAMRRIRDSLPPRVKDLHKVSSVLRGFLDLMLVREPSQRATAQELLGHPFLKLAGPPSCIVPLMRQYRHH
T8 sequence (Q9Y2K2 whole entry): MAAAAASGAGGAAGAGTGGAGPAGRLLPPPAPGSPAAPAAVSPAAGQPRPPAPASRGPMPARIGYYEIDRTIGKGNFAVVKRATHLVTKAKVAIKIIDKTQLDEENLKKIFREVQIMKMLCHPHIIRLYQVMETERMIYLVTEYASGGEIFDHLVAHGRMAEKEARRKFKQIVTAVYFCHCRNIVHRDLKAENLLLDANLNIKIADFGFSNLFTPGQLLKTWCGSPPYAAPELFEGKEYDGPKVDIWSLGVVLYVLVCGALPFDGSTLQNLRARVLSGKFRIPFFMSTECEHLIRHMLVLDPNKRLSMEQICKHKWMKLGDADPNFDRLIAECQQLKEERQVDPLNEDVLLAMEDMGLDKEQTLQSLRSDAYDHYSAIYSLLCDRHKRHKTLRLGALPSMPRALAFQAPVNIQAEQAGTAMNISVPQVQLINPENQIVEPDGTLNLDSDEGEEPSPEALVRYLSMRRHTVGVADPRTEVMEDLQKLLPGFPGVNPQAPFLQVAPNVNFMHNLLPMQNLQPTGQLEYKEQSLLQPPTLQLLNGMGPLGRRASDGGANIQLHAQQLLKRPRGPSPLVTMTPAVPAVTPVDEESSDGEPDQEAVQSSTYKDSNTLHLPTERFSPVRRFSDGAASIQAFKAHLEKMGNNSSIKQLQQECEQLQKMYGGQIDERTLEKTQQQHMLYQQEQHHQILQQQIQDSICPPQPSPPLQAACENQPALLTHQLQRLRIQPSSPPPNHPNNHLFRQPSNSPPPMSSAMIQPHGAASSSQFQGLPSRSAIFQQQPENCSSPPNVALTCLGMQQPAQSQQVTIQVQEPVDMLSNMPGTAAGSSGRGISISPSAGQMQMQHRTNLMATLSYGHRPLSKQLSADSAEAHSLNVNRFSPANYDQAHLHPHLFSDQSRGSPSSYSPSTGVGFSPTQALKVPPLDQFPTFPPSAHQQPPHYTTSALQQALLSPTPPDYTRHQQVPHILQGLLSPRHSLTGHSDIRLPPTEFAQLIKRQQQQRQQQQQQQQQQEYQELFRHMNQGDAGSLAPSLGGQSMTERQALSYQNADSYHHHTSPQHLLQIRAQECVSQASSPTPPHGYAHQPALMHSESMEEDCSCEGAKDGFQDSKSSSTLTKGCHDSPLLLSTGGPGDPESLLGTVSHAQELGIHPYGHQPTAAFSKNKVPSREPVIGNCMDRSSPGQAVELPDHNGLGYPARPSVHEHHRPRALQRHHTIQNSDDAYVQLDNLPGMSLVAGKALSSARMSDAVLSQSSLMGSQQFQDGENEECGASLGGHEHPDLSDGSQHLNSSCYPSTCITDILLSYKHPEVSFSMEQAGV

With `CC(C)c1cc(-c2n[nH]c(=O)n2-c2ccc3c(ccn3C)c2)c(O)cc1O` [Ganetespib (STA9090)], the remaining activity at 10 µM on 382 unique human kinases [1] was 84.5%; at 382 unique human kinases [2], 119%; at 382 unique human kinases [3] it was 88.7%; at 382 unique human kinases [4] it was 101%; on 382 unique human kinases [5], 109%; at 382 unique human kinases [6], 75.4%. The remaining activity at 10 µM at 382 unique human kinases [7] was 119%; at 382 unique human kinases [8], 78.3%.
As for `CC(C)c1cc(-c2n[nH]c(=O)n2-c2ccc3c(ccn3C)c2)c(O)cc1O` [Ganetespib], the results for the remaining activity at 10 µM at 382 unique human kinases [9] and at 382 unique human kinases [10] were 99% and 90.9%, respectively.
In the case of `CCNC(=O)c1noc(-c2cc(C(C)C)c(O)cc2O)c1-c1ccc(CN2CCOCC2)cc1` [Luminespib (AUY-922)], the “% Enzyme Activity (relative to DMSO controls)” value on 382 unique human kinases [1] came out at 94.03%; on 382 unique human kinases [2], 102.37%; at 382 unique human kinases [3], 99.89%; at 382 unique human kinases [4] it was 104.01%; on 382 unique human kinases [5], 69.42%; on 382 unique human kinases [6] it was 98.29%. Moreover, the “% Enzyme Activity (relative to DMSO controls)” value amounted to 107.77% on 382 unique human kinases [7] and 99.21% on 382 unique human kinases [8]. Also, the remaining activity at 10 µM at 382 unique human kinases [1] stood at 94.4%; on 382 unique human kinases [2], 105%; at 382 unique human kinases [3], 101%; on 382 unique human kinases [4], 104%; on 382 unique human kinases [5], 69.9%; at 382 unique human kinases [6], 99.3%. Also, the remaining activity at 10 µM was 108% on 382 unique human kinases [7] and 99.6% at 382 unique human kinases [8].
For `CCNC(=O)c1noc(-c2cc(C(C)C)c(O)cc2O)c1-c1ccc(CN2CCOCC2)cc1` [Luminespib], at 382 unique human kinases [9], the “% Enzyme Activity (relative to DMSO controls)” value was 99.71% and the remaining activity at 10 µM is 100%. At 382 unique human kinases [10], the “% Enzyme Activity (relative to DMSO controls)” value came out at 92.81% and the remaining activity at 10 µM was 95.7%.
